Test results from US20050277600A1, “Compositions and methods of use of dimer digallates” (Mars, Incroporated, priority 2004, published 2005).

Columns and labels:
[1] = test system: rabbit aortic rings; assay: Relaxation of norepinephrine pre-constricted rabbit aortic rings ex vivo; conditions: for Max Relaxation: Experiment 3, 100 μM; for Aortic Ring Effective Conc,: Table 1 summary
Experimental: Several compounds were investigated for their effect on nitric oxide (NO) production and vasorelaxation using serum-free human umbilical vein endothelial cell (HUVEC) culture system in vitro and rabbit aortic ring model ex vivo, respectively. NO production by endothelial cells and relaxation of pre-constricted aortic rings are two main markers for evaluating vascular effects of test compounds. Effect of different procyanidins on endothelium-dependent relaxation was tested in an ex vivo experiment performed as previously described by Karim et al., J. Nutrl Suppl., 130 (8S): […]-[…] (2000), the relevant portions of which are hereby incorporated herein by reference. The advantage of using this method is that it assesses functional vascular end points. […] In summary, rabbit aortic rings were obtained from male New Zealand White rabbits. Following isolation, the rings were mounted in oxygenated Kreb's buffer, and pre-constricted with norepinephrine (NE) (10^-6 M). […] A positive control acetylcholine (10^-9 to 10^-4 M) and a negative control L-NAME were included in the experiment. Use of L-NAME, which is a NO synthase (NOS) inhibitor, allows for differentiating between endothelium dependent and endothelium independent relaxation events. […] The relaxation response was measured as a function of the decrease in the tension (g) exerted by the aortic rings over time […]. Data obtained were expressed as a percent relaxation of the norepinephrine (NE) constricted rings. The same statistical approach as described above was used. Dose response curves were obtained by plotting the average percent relaxation (+/-SE) against the concentrations used.

[2] = test system: human umbilical vein endothelial cell (HUVEC) NO production; assay: HUVEC NO production (NOx in cell culture medium, chemiluminescence); assay type: cell-based; conditions: for HUVEC Cells NOx, 2 hr / HUVEC Cells NOx, 24 hr / HUVEC Cells NOx, 5 d: Table 2 summary; for NO production, positive and negative controls: Experiment 1, acute, 2 hours
Experimental: Several compounds were investigated for their effect on nitric oxide (NO) production and vasorelaxation using serum-free human umbilical vein endothelial cell (HUVEC) culture system in vitro and rabbit aortic ring model ex vivo, respectively. NO production by endothelial cells and relaxation of pre-constricted aortic rings are two main markers for evaluating vascular effects of test compounds.
HUVECs obtained from a single donor were cultured in serum free, low protein (0.5 g/l), antibiotic-free cell culture medium supplemented with essential growth factors, nutrients and minerals. […] The cell culture medium was substituted with apo-transferrin, superoxide dismutase, and catalase to exclude secondary effects of test compounds involving their auto-oxidation mediated hydrogen peroxide formation.
NO production was evaluated by measuring the total amount of all major nitric oxide end products (NOx, including nitrate, nitrite, nitrosothiols) present in the cell culture medium. […] The amount of NO released from the culture medium was subsequently evaluated by measuring the chemiluminescence emitted during the stoichiometrical reaction between ozone and NO using a NO Analyzer (Sievers Instruments, Inc. Boulder, Colo.).
The data presented herein were obtained from three experiments and were expressed as the concentration of NO present (in μmol/l) (as NOx) in the cell culture medium+/−standard deviation (SD). The data were corrected for the NOx intrinsically present in the fully supplemented cell culture medium and normalized with respect to the volume of media from which the sample was drawn. Data were analyzed using Student's t-test with a 95% level of confidence. P values equal to or less than 0.05 were defined as statistically significant.
For the acute effect test, HUVECs were incubated with the test compounds for 2 hours at concentrations of 100 nM, 1 μM, and 10 μM at 37° C. and 5% CO2. […] (FIG. 1)
For the chronic effect test, HUVECs were incubated with 5 subsequent doses of test compounds, each for 24 hours. After each 24 hour treatment, culture medium was replaced.
For the acute effect test, HUVECs were incubated with a single dose of the test compounds for 24 hours at concentrations of 100 nM, 1 μM, and 10 μM at 37° C. and 5% CO2.

[3] = test system: HUVEC; assay: HUVEC-mediated MTT reduction (toxic effects); conditions: for cell-mediated MTT reduction: 10 μM (20 μM for the Epicatechin gallates)
Experimental: Cell counts and total protein were used to assess intra-assay variation. Potential toxic effects of tested compounds were also monitored (MTT reduction was measured).

[4] = Experiment 1, chronic, 5 subsequent 24 hour doses
[5] = Experiment 2, chronic, 5 x 24 hours
[6] = Experiment 4, 10^−9M -10^4M (so in the source)

O=C(O[C@H]1[C@H](c2c(O)cc(O)c3c2O[C@H](c2ccc(O)c(O)c2)[C@@H](OC(=O)c2cc(O)c(O)c(O)c2)C3)c2c(O)cc(O)cc2O[C@@H]1c1ccc(O)c(O)c1)c1cc(O)c(O)c(O)c1 [C-(4α→8)-C digallate, (+)-Catechin-(4α,8)-(+)-Catechin Digallate]
relaxation response, percent relaxation of NE constricted rings ([1]; Experiment 2, 10^−4 M): 71.7+/−11.6% | Max Relaxation [1]: 72% | Aortic Ring Effective Conc, [1]: 100 µM

Oc1cc(O)c2c(c1)O[C@H](c1ccc(O)c(O)c1)[C@@H](O)[C@@H]2c1c(O)cc(O)c2c1O[C@H](c1ccc(O)c(O)c1)[C@@H](O)C2 [C-(4α→8)-C, (+)-Catechin-(4α,8)-(+)-Catechin]
relaxation response, percent relaxation of NE constricted rings ([1]; Experiment 1, 10^−4 M): 60.80+/−15.09% | Max Relaxation [1]: 61% | Aortic Ring Effective Conc, [1]: 100 µM | NO production ([2]; Experiment 1, 24 h after single dose, 10 μM): increased NO production | NO production [2, 4]: did not modulate NO production | HUVEC Cells NOx, 2 hr [2]: no effect | HUVEC Cells NOx, 24 hr [2]: 10 uM, sign. NOx incr. | HUVEC Cells NOx, 5 d [2]: no effect

O=C(O[C@H]1[C@H](c2c(O)cc(O)c3c2O[C@H](c2ccc(O)c(O)c2)[C@H](OC(=O)c2cc(O)c(O)c(O)c2)C3)c2c(O)cc(O)cc2O[C@@H]1c1ccc(O)c(O)c1)c1cc(O)c(O)c(O)c1 [C-(4α→8)-EC digallate, (+)-Catechin-(4α,8)-(−)-Epicatechin Digallate]
relaxation response, percent relaxation of NE constricted rings ([1]; Experiment 2, 10^−4 M): 40.7+/−9.2% | Max Relaxation [1]: 41% | Aortic Ring Effective Conc, [1]: 100 µM | MTT reduction ([3]; Experiment 2, chronic, 5 x 24 hours, 1 μM or 2 μM for EGC): decline in MTT reduction | cell-mediated MTT reduction [3, 5]: significant decline of cell-mediated MTT reduction | HUVEC Cells NOx, 24 hr [2]: no effect | HUVEC Cells NOx, 5 d [2]: No significant NOx increase;

Oc1cc(O)c2c(c1)O[C@H](c1ccc(O)c(O)c1)[C@@H](O)[C@@H]2c1c(O)cc(O)c2c1O[C@H](c1ccc(O)c(O)c1)[C@H](O)C2 [C-(4α→8)-EC]
relaxation response ([1]; Experiment 2, 10^−9 to 10^−4 M): No significant relaxation response

O=C(O[C@H]1[C@@H](c2c(O)cc(O)c3c2O[C@H](c2ccc(O)c(O)c2)[C@@H](OC(=O)c2cc(O)c(O)c(O)c2)C3)c2c(O)cc(O)cc2O[C@@H]1c1ccc(O)c(O)c1)c1cc(O)c(O)c(O)c1 [C-(4β→8)-C digallate, (+)-Catechin-(4β,8)-(+)-Catechin Digallate]
relaxation response, percent relaxation of NE constricted rings ([1]; Experiment 2, 10^−4 M): 72.6+/−9.8% | Max Relaxation [1]: 73% | Aortic Ring Effective Conc, [1]: 100 µM

Oc1cc(O)c2c(c1)O[C@H](c1ccc(O)c(O)c1)[C@@H](O)[C@H]2c1c(O)cc(O)c2c1O[C@H](c1ccc(O)c(O)c1)[C@@H](O)C2 [C-(4β→8)-C, (+)-Catechin-(4β,8)-(+)-Catechin]
relaxation response ([1]; Experiment 1, 10^−9 to 10^−4 M): No significant relaxation response | relaxation response ([1]; Experiment 2, 10^−9 to 10^−4 M): No significant relaxation response | HUVEC NO production ([2]; Experiment 2, chronic, 5 subsequent 24 hour doses): increase in HUVEC NO production | HUVEC Cells NOx, 2 hr [2]: no effect | HUVEC Cells NOx, 24 hr [2]: no effect | HUVEC Cells NOx, 5 d [2]: 10 uM, significant NOx increase

Oc1cc(O)c2c(c1)O[C@H](c1ccc(O)c(O)c1)[C@@H](O)[C@H]2c1c(O)cc(O)c2c1O[C@H](c1ccc(O)c(O)c1)[C@H](O)C2 [C-(4β→8)-EC]
relaxation response ([1]; Experiment 2, 10^−9 to 10^−4 M): No significant relaxation response | cell-mediated MTT reduction [3, 5]: significant decline of cell-mediated MTT reduction

Cc1c(O)c(C2c3c(O)cc(O)cc3OC(c3ccc(O)c(O)c3)C2O)c(O)c2c1OC(c1ccc(O)c(O)c1)C(O)C2 (stereo not drawn) [EC(4β→6)EC-8methyl]
relaxation response ([1]; Experiment 2, 10^−9 to 10^−4 M): No significant relaxation response

O=C(O[C@@H]1[C@@H](c2c(O)cc(O)c3c2O[C@H](c2ccc(O)c(O)c2)[C@@H](OC(=O)c2cc(O)c(O)c(O)c2)C3)c2c(O)cc(O)cc2O[C@@H]1c1ccc(O)c(O)c1)c1cc(O)c(O)c(O)c1 [EC-(4β→8)-C digallate, (−)-Epicatechin-(4β,8)-(+)-Catechin Digallate]
relaxation response, percent relaxation of NE constricted rings ([1]; Experiment 2, 10^−4 M): 56.7+/−15.4% | Max Relaxation [1]: 57% | Aortic Ring Effective Conc, [1]: 100 µM

Oc1cc(O)c2c(c1)O[C@H](c1ccc(O)c(O)c1)[C@H](O)[C@H]2c1c(O)cc(O)c2c1O[C@H](c1ccc(O)c(O)c1)[C@H](O)C2 [EC-(4β→8)-EC]
relaxation response ([1]; Experiment 1, 10^−9 to 10^−4 M): No significant relaxation response | MTT reduction [3, 4]: decline in MTT reduction

O=C(O[C@@H]1Cc2c(O)cc(O)cc2O[C@@H]1c1ccc(O)c(O)c1)c1cc(O)c(O)c(O)c1 [ECG, Epicatechingallate, reference compound]
relaxation response [1, 6]: No significant relaxation response | cell-mediated MTT reduction [3, 5]: significant decline of cell-mediated MTT reduction

Oc1cc(O)c2c(c1)O[C@H](c1cc(O)c(O)c(O)c1)[C@H](O)C2 [EGC, Epigallocatechin, reference compound]
relaxation response [1, 6]: No significant relaxation response

O=C(O[C@@H]1Cc2c(O)cc(O)cc2O[C@@H]1c1cc(O)c(O)c(O)c1)c1cc(O)c(O)c(O)c1 [EGCG, Epigallocatechingallate, reference compound]
relaxation response [1, 6]: No significant relaxation response | modulation of NO production ([2]; Experiment 2, single dose, 24 hours, 10 μM): statistically significant ability to modulate NO production | HUVEC Cells NOx, 24 hr [2]: 20 uM, sign. NOx inc. | HUVEC Cells NOx, 5 d [2]: No significant NOx increase;

O=C(O)c1cc(O)c(O)c(O)c1 [Gallic Acid, reference compound]
relaxation response [1, 6]: No significant relaxation response

COC(=O)[C@@H](N)CCCNC(=N)N[N+](=O)[O-] [L-NAME, reference compound]
relaxation responses after pre-treatment with NOS inhibitor ([1]; vessels pre-treated with negative control): relaxation responses were attenuated

CNC(=N)NCCC[C@H](N)C(=O)O [L-NNMA, reference compound]
NO production, positive and negative controls ([2]; compared to vehicle): completely attenuated the acetylcholine and histamine-NO production | NOx production, positive and negative controls ([2]; Experiment 2, single dose, 24 hours, compared to vehicle): completely attenuated the acetylcholine-induced NO production

CC(=O)OCC[N+](C)(C)C [acetylcholine, reference compound]
concentration producing a relaxation response ([1]; positive control): 10^−7 M | concentration reaching maximal relaxation ([1]; positive control): 10^−6 M

NCCc1c[nH]cn1 [histamine, reference compound]
NO production, positive and negative controls ([2]; compared to vehicle): statistically significant increase in NO production

(−)-Epicatechin-(4β,8)-(OMethyl)4-(−)-Epicatechin Digallate [EC-(4β→8)(OMethyl)4-EC digallate]
relaxation response ([1]; Experiment 1, 10^−9 to 10^−4 M): No significant relaxation response | HUVEC Cells NOx, 2 hr [2]: no effect | HUVEC Cells NOx, 24 hr [2]: no effect | HUVEC Cells NOx, 5 d [2]: 10 uM, significant NOx increase
